Measurements published in patent US20200032125A1, “COMBINED USES OF A PHOSPHOROUS COMPOUND FOR IRON SULPHIDE DISSOLUTION AND BACTERIAL CONTROL” (RHODIA OPERATIONS, priority 2016, published 2020).

Test system: general heterotrophic bacteria (GHB)
Settings: iron sulphide present; same level of THPS as the control

“tetrakis (hydroxymethyl) phosphonium sulphate [THPS]” was tested, and the “bacterial kill (reduction in colony forming units per ml) versus control sample without iron sulphide” value was “bacterial kill is still achieved”.
